Assay results taken from ChEMBL document CHEMBL4311997, “Discovery of a potent histone deacetylase (HDAC) 3/6 selective dual inhibitor” (Eur J Med Chem, 2019).
Converted amounts (≈) assume the structure as drawn. The source made the active and inactive calls. The calls are words filed in the database; no cut-off is given here.

How the values were obtained:
[1] = biological target: Histone deacetylase 8 (Homo sapiens, UniProt Q9BY41); test: Inhibition of human HDAC8 using Arg-His-Lys (Ac)-Lys (Ac) as substrate incubated for 2 hrs by fluorescence assay
Chain of Histone deacetylase 8 (Q9BY41 whole entry): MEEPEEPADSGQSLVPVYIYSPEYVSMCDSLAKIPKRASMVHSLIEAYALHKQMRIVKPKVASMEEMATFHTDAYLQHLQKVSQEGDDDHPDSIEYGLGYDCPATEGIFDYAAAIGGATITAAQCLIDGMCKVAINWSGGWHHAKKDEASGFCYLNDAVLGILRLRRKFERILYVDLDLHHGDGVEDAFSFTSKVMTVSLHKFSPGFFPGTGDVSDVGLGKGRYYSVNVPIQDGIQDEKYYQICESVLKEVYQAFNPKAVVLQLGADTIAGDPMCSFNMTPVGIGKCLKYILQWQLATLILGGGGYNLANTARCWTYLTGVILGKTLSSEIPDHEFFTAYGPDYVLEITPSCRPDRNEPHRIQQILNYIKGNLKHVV

[2] = organism: Homo sapiens; test: Selectivity ratio of IC50 for inhibition of human HDAC1 to IC50 for inhibition of human HDAC3
[3] = tested on: MDA-MB-231; test: Antiproliferative activity against human MDA-MB-231 cells incubated for 72 hrs by MTT assay; type: functional, cell-based; conditions: MDA-MB-231, 72 h
[4] = organism: Homo sapiens; test: Selectivity ratio of IC50 for inhibition of human HDAC2 to IC50 for inhibition of human HDAC3
[5] = organism: Homo sapiens; test: Inhibition of human MLL1 complex at 100 uM using core histone as substrate incubated for 1 hr in presence of [3H]-SAM by filter binding method relative to control
[6] = organism: Homo sapiens; test: Selectivity ratio of IC50 for human HDAC4 to IC50 for human HDAC6
[7] = tested on: OPM-2; test: Antiproliferative activity against human OPM2 cells incubated for 48 hrs by CellTiter-Glo luminescent cell viability assay; type: functional, cell-based; conditions: OPM-2, 48 h
[8] = tested on: MDA-MB-231; test: Induction of apoptosis in human MDA-MB-231 cells assessed as necrotic cells at 6 uM incubated for 48 hrs by Annexin V-FITC/PI staining by flow cytometric analysis (reference value: 15%); type: functional
[9] = tested on: NCI-H929; test: Antiproliferative activity against human NCI-H929 cells incubated for 48 hrs by CellTiter-Glo luminescent cell viability assay; type: functional, cell-based; conditions: NCI-H929, 48 h
[10] = Therapeutic Index, ratio of EC50 for human AC10 cells to EC50 for human MDA-MB-231 cells; type: toxicity; conditions: AC10 cells versus MDA-MB-231 cells, read-out: Ratio EC50
[11] = Half life in male rat liver microsomes at 3 uM preincubated for 5 mins followed by NADPH addition and measured up to 45 mins by LC-MS/MS analysis; type: ADME, Microsome
[12] = tested on: KMS-12-BM; test: Antiproliferative activity against human KMS-12-BM cells incubated for 48 hrs by CellTiter-Glo luminescent cell viability assay; type: functional, cell-based
[13] = biological target: Histone deacetylase 3 (Homo sapiens, UniProt O15379); test: Inhibition of human HDAC3 using Arg-His-Lys-Lys (Ac) as substrate incubated for 2 hrs by fluorescence assay
Chain of Histone deacetylase 3 (O15379 whole entry): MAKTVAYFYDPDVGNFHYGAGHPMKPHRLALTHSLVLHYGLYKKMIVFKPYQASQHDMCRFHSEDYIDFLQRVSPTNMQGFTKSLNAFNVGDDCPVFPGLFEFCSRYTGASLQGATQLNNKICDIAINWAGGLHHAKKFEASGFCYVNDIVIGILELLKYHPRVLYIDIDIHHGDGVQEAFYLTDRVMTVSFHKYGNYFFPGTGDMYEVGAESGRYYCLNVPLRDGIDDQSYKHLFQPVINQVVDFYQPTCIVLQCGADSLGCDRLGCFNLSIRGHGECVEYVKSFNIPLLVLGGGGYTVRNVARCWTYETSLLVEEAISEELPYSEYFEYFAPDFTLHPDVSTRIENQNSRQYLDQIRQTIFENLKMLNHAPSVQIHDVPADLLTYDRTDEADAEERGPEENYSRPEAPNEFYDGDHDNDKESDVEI

[14] = Selectivity index, ratio of EC50 for human MDA-MB-231 cells to IC50 for ring stage Plasmodium falciparum 3D7; type: functional; design: reference not given here
[15] = Genotoxicity in Salmonella typhimurium TA100 in presence of S9 fraction incubated for 48 hrs by Ames test relative to control; type: toxicity, subcellular; conditions: salmonella enterica subsp. enterica serovar typhimurium, s9, 48 h
[16] = tested on: Plasmodium falciparum; test: microbe, parasite or virus in culture; type: functional, organism-based; conditions: 3D7, 48 h
Description: Antimalarial activity against ring stage Plasmodium falciparum 3D7 incubated for 48 hrs by Hoechst 33342 staining based fluorescence based assay

[17] = Therapeutic Index, ratio of EC50 for mouse TAMH cells to EC50 for human MDA-MB-231 cells; type: toxicity; conditions: TAMH cells versus MDA-MB-231 cells, read-out: Ratio EC50
[18] = biological target: Histone-lysine N-methyltransferase SUV39H2 (Homo sapiens) (UniProt Q9H5I1); test: Inhibition of human SUV39H2 at 100 uM using histone H3 as substrate incubated for 1 hr in presence of [3H]-SAM by filter binding method relative to control
Chain of Histone-lysine N-methyltransferase SUV39H2 (Homo sapiens) (Q9H5I1 whole entry): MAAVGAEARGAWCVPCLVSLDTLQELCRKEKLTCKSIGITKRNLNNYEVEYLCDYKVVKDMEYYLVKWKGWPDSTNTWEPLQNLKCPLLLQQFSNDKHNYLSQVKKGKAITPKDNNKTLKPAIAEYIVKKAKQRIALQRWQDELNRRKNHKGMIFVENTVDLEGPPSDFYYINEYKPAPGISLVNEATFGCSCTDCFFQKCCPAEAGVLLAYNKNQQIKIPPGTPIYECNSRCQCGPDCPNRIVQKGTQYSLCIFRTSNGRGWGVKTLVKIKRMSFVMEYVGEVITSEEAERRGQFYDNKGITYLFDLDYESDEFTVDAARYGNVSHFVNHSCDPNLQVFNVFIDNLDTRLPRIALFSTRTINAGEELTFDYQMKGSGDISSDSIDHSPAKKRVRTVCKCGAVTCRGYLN

[19] = Intrinsic clearance in female rat liver microsomes at 3 uM preincubated for 5 mins followed by NADPH addition and measured up to 45 mins by LC-MS/MS analysis; type: ADME, Microsome
[20] = biological target: Histone deacetylase 9 (Homo sapiens) (UniProt Q9UKV0); test: Inhibition of human HDAC9 at 10 uM using Acetyl-Lys (trifluoroacetyl)-AMC) as substrate incubated for 2 hrs by fluorescence assay relative to control
[21] = biological target: Histone deacetylase 11 (Homo sapiens, UniProt Q96DB2); test: Inhibition of human HDAC11 using Acetyl-Lys (trifluoroacetyl)-AMC) as substrate incubated for 2 hrs by fluorescence assay
Chain of Histone deacetylase 11 (Q96DB2 whole entry): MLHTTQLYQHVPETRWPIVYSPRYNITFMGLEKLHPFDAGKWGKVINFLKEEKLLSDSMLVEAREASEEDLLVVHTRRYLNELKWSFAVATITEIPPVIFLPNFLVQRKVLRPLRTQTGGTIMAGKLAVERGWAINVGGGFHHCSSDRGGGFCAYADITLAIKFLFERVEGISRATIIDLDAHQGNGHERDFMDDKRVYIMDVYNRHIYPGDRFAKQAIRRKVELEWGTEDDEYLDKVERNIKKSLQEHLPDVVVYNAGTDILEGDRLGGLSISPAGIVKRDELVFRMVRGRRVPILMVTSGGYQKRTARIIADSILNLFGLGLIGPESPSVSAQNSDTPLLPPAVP

[22] = tested on: MDA-MB-231; test: Induction of apoptosis in human MDA-MB-231 cells assessed as necrotic cells at 3 uM incubated for 48 hrs by Annexin V-FITC/PI staining by flow cytometric analysis (reference value: 15%); type: functional
[23] = Intrinsic clearance in male rat liver microsomes at 3 uM preincubated for 5 mins followed by NADPH addition and measured up to 45 mins by LC-MS/MS analysis; type: ADME, Microsome; conditions: read-out: CLH
[24] = biological target: Histone deacetylase 1 (Homo sapiens, UniProt Q13547)
Chain of Histone deacetylase 1 (Q13547 whole entry): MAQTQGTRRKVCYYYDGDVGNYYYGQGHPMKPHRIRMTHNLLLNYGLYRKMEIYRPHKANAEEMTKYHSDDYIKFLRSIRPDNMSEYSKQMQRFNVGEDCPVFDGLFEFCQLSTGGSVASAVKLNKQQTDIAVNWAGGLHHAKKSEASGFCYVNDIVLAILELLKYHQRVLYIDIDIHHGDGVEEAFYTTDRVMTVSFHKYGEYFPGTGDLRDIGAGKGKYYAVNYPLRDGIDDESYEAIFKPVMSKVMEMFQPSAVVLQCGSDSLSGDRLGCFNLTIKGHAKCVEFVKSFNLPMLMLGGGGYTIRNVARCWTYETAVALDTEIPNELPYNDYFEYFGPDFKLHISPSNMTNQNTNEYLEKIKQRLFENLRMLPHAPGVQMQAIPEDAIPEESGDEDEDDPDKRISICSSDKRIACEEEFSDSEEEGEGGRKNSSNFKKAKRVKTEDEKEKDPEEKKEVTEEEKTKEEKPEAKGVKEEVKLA
Description: Inhibition of human HDAC1 using Arg-His-Lys-Lys (Ac) as substrate incubated for 2 hrs by fluorescence assay

[25] = tested on: TAMH; test: Cytotoxicity against TAMH cells incubated for 24 hrs by CellTiter-Glo Cell Viability Assay; type: cell-based; conditions: Mus musculus
[26] = Inhibition of human MLL1 complex using core histone as substrate incubated for 1 hr in presence of [3H]-SAM by filter binding method
[27] = tested on: MDA-MB-231; test: Induction of apoptosis in human MDA-MB-231 cells assessed as early apoptotic cells at 9 uM incubated for 48 hrs by Annexin V-FITC/PI staining by flow cytometric analysis (reference value: 5%); type: functional
[28] = tested on: MDA-MB-231; test: Induction of apoptosis in human MDA-MB-231 cells assessed as late apoptotic cells at 9 uM incubated for 48 hrs by Annexin V-FITC/PI staining by flow cytometric analysis (reference value: 3%); type: functional
[29] = Half life in mouse liver microsomes at 3 uM preincubated for 5 mins followed by NADPH addition and measured up to 45 mins by LC-MS/MS analysis; type: ADME, Microsome
[30] = tested on: MDA-MB-231; test: Induction of apoptosis in human MDA-MB-231 cells assessed as viable cells at 9 uM incubated for 48 hrs by Annexin V-FITC/PI staining by flow cytometric analysis (reference value: 77%); type: functional; conditions: MDA-MB-231, 48 h, read-out: Activity
[31] = Intrinsic clearance in mouse liver microsomes at 3 uM preincubated for 5 mins followed by NADPH addition and measured up to 45 mins by LC-MS/MS analysis; type: ADME, Microsome; conditions: read-out: CLH
[32] = biological target: Histone-lysine N-methyltransferase, H3 lysine-79 specific (Homo sapiens) (UniProt Q8TEK3); test: Inhibition of human DOT1L at 100 uM using oligo nucleosomes as substrate incubated for 1 hr in presence of [3H]-SAM by filter binding method relative to control
Chain of Histone-lysine N-methyltransferase, H3 lysine-79 specific (Homo sapiens) (Q8TEK3 whole entry, looked up): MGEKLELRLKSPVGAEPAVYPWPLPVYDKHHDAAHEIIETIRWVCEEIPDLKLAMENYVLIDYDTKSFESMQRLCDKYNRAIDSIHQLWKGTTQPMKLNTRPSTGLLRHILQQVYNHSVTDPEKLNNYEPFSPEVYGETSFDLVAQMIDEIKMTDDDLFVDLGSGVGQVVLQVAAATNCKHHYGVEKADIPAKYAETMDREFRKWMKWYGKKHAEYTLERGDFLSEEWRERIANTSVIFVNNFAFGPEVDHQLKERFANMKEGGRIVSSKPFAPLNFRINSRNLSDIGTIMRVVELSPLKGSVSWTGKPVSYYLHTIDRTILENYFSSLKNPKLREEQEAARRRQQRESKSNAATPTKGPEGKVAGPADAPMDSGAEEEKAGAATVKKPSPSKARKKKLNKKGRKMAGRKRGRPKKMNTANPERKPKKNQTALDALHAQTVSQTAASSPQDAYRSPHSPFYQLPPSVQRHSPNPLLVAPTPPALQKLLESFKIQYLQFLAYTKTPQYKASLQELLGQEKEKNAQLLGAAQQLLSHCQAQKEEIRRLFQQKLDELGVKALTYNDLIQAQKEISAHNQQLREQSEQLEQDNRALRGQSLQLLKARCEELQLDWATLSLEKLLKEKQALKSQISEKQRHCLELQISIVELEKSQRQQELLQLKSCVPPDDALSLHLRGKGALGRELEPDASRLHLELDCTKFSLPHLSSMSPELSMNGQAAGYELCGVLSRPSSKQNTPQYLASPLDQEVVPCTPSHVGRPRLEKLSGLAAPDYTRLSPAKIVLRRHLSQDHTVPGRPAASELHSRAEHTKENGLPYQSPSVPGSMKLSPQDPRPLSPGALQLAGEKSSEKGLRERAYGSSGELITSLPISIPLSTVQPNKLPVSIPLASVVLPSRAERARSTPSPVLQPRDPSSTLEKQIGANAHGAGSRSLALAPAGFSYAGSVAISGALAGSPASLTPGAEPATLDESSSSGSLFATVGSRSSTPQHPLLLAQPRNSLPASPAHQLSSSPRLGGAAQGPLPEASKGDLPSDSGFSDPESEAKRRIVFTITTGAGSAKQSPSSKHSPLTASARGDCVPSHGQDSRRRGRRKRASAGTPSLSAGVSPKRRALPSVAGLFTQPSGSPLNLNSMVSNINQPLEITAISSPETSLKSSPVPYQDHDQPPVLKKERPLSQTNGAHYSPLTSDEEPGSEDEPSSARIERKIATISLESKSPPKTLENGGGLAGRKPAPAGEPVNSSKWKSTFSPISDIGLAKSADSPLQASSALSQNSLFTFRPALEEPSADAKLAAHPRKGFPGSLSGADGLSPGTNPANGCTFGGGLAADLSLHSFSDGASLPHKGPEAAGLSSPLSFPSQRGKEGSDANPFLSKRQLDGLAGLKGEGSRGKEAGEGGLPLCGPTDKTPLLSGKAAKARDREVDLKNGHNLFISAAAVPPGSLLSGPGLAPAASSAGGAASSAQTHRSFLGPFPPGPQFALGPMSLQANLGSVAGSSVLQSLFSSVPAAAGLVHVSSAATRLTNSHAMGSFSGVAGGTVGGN

[33] = Kinetic solubility in pH 7.4 universal buffer measured after 24 hrs by UV spectroscopic analysis; type: physicochemical; conditions: read-out: Kinetic_solubility
[34] = biological target: DNA (cytosine-5)-methyltransferase 3A (Homo sapiens, UniProt Q9Y6K1); test: Inhibition of human DNMT3a using lambda DNA as substrate incubated for 1 hr in presence of [3H]-SAM by filter binding method
Chain of DNA (cytosine-5)-methyltransferase 3A (Q9Y6K1 whole entry, looked up): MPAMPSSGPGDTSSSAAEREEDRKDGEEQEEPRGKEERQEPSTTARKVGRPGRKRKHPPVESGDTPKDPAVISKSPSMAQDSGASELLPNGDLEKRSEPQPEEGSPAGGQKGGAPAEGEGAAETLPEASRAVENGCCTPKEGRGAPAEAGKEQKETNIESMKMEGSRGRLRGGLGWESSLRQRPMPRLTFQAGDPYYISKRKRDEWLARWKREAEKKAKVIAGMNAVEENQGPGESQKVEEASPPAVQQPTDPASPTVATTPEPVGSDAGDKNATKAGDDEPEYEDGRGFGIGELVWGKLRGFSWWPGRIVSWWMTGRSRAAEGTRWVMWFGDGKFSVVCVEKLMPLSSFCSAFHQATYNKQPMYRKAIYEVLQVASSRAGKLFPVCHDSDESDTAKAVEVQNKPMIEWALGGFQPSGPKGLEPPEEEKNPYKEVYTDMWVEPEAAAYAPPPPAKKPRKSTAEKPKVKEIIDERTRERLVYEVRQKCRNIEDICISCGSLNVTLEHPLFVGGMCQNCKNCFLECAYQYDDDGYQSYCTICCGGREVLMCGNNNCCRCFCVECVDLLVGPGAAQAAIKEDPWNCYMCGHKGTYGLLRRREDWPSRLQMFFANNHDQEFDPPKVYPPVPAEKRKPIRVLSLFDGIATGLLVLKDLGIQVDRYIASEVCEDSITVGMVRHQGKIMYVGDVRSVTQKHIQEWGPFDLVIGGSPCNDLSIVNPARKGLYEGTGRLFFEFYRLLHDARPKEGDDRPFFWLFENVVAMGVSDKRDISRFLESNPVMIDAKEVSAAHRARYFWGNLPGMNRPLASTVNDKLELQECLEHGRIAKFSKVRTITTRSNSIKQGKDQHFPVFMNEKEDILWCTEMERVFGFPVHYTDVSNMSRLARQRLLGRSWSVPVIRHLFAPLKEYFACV

[35] = Half life in female rat liver microsomes at 3 uM preincubated for 5 mins followed by NADPH addition and measured up to 45 mins by LC-MS/MS analysis; type: ADME, Microsome
[36] = biological target: Histone deacetylase 1/2/3 (Homo sapiens, UniProt Q13547+O15379+Q92769); test: Inhibition of HDAC1/2/3 in human KMS-12-BM cells assessed as increase in Ac-H3 level incubated for 24 hrs by Western blot analysis; type: cell-based

What does the source list for `COc1ccc(CN2CCC(Nc3nc(Nc4ccc(NC(=O)CCCCCCC(=O)NO)cc4)nc4cc(OC)c(OC)cc34)CC2)cc1`?
IC50 [1]: 1.26 µM; Ratio IC50 [2]: 26 to 33; EC50 [3]: 6.3 µM; Ratio IC50 [4]: 26 to 33; inhibition [5]: 42%; Ratio IC50 [6]: > 3000; EC50 [7]: 7.9 µM; Activity [8]: 12%; EC50 [9]: 4.6 µM; selectivity ratio [10]: 15; half-life at 3 µM [11]: 2.38 h; EC50 [12]: 7.6 µM; IC50 [13]: 0.034 µM; Selectivity Index [14]: 43; Activity [15]: Non-Toxic; IC50 [16]: 0.145 µM; selectivity ratio [17]: 5; inhibition [18]: inactive; microsomal CLint at 3 µM [19]: 22.3 µL/min/mg; inhibition [20]: 21%; IC50 [21]: 1.81 µM; Activity [22]: 15%; microsomal CLint at 3 µM [23]: 16.3 µL/min/mg; IC50 [24]: 0.896 µM; EC50 [25]: 29 µM; EC50 [26]: 158 µM; Activity [27]: 24%; Activity [28]: 11%; half-life at 3 µM [29]: 0.443 h; viability at 9 µM [30]: 57%; microsomal CLint at 3 µM [31]: 52.2 µL/min/mg; inhibition [32]: 16%; solubility kinetic at 24 h [33]: 4 µM (≈ 2.74 µg/mL); IC50 [34]: 74 µM; half-life at 3 µM [35]: 1.73 h; EC50 [36]: 7.5 µM; inhibition [36]: Dose-dependent effect
